Source: patent publication US12624024B2, “EP2 antagonist compounds” (Reservoir Neuroscience, Inc., priority 2021, dated 2026)
pIC50: −log10 of the molar value.

Target: T1, EP2 receptor (Homo sapiens, UniProt P43116)
T1 construct: expressed in transfected cells; host or cells: CHO-K1 cells (ATCC), transient transfection with FuGENE 6
Test: EP2 Potency Assay (cAMP TR-FRET, CHO-K1 cells transfected with EP2 receptor, PGE2 at EC80)
Format: cell-based
Conditions: CHO-K1 cells expressing EP2, prostaglandin E2 at EC80, read-out: EP2 Potency (IC50 category)
Experimental: Compound potency was measured using a cAMP TR-FRET assay.
After 6 hours incubation, the cell media was replaced with F12 medium supplemented with 10% FBS and 100 U/ml Pen-Strep. 24 hours after transfection, cells were harvested and seeded at a density of 3000 cells/well in a 384 well plate to perform the cAMP assay, using the LANCE Ultra cAMP assay kit (PerkinElmer).
Plates were then centrifuged at 1000 rpm for 1 min, agitated at 600 rpm at R.T. for 2 min, and incubated at 25° C. for 5 min. The reference agonist, prostaglandin E2 (MCE), was added to each well at the appropriate concentration to reach its EC80 value. Plates were then centrifuged at 1000 rpm for 1 min, agitated at 600 rpm at R.T. for 2 min, and incubated at 25° C. for 30 min.
A dose-response curve was prepared by plotting percent inhibition for each compound concentration, and then IC50 was calculated by fitting a curve to the plotted values and extrapolating the IC50 concentration.

T1 sequence (P43116 whole entry): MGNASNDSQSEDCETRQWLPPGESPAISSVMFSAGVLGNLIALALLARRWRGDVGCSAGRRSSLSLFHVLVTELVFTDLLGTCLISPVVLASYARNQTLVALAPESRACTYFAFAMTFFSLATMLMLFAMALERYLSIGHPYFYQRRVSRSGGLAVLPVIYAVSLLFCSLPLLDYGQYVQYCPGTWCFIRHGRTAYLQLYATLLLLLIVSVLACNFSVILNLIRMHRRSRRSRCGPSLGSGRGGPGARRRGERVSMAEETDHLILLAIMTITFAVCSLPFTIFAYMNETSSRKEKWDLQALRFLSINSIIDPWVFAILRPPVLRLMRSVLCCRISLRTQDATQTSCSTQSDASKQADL

Row | Structure (SMILES) | pIC50
1 | COC(=O)[C@H]1CC[C@@H](CN2CCOc3c(Cl)cc(-n4ccc5cc(F)ccc54)cc3C2)CC1 [Compound 134] | < 5.30
2 | NCc1ncc(CN2CCOc3c(Cl)cc(-n4ccc5cc(F)ccc54)cc3C2)cn1 [Compound 139, 1-(5-{[9-chloro-7-(5-fluoroindol-1-yl)-3,5-dihydro-2H-1,4-benzoxazepin-4-yl]methyl}pyrimidin-2-yl)methanamine] | 6.30 to 7.00
3 | CC(C)(C)OC(=O)NCc1ncc(CN2CCOc3c(Cl)cc(-n4ccc5cc(F)ccc54)cc3C2)cn1 [Compound 140, tert-butyl N-[(5-{[9-chloro-7-(5-fluoroindol-1-yl)-3,5-dihydro-2H-1,4-benzoxazepin-4-yl]methyl}pyrimidin-2-yl)methyl]carbamate] | 5.30 to 6.00
4 | OCc1ncc(CN2CCOc3c(Cl)cc(-n4ccc5cc(F)ccc54)cc3C2)cn1 [Compound 141, (5-{[9-chloro-7-(5-fluoroindol-1-yl)-3,5-dihydro-2H-1,4-benzoxazepin-4-yl]methyl}pyrimidin-2-yl)methanol] | 6.00 to 6.30
5 | NC(=O)c1ncc(CN2CCOc3c(Cl)cc(-n4ccc5cc(F)ccc54)cc3C2)cn1 [Compound 143, 5-{[9-chloro-7-(5-fluoroindol-1-yl)-3,5-dihydro-2H-1,4-benzoxazepin-4-yl]methyl}pyrimidine-2-carboxamide] | 5.30 to 6.00
6 | COC(=O)c1ncc(CN2CCOc3c(Cl)cc(-n4ccc5cc(F)ccc54)cc3C2)cn1 [Compound 145, Methyl 5-{[9-chloro-7-(5-fluoroindol-1-yl)-3,5-dihydro-2H-1,4-benzoxazepin-4-yl]methyl}pyrimidine-2-carboxylate] | > 7.00
7 | CNc1ncc(CN2CCOc3c(Cl)cc(-n4ccc5cc(F)ccc54)cc3C2)cn1 [Compound 147] | 6.30 to 7.00
8 | CN(C)c1ncc(CN2CCOc3c(Cl)cc(-n4ccc5cc(F)ccc54)cc3C2)cn1 [Compound 148] | 6.00 to 6.30
9 | Fc1ccc2c(ccn2-c2cc(Cl)c3c(c2)CN(Cc2cnc(NC4COC4)nc2)CCO3)c1 [Compound 149, 5-{[9-chloro-7-(5-fluoroindol-1-yl)-3,5-dihydro-2H-1,4-benzoxazepin-4-yl]methyl}-N-(oxetan-3-yl)pyrimidin-2-amine] | 6.30 to 7.00
10 | O=c1ncc(CN2CCOc3c(Cl)cc(-n4ccc5cc(F)ccc54)cc3C2)c(F)[nH]1 [Compound 155, 5-{[9-chloro-7-(5-fluoroindol-1-yl)-3,5-dihydro-2H-1,4-benzoxazepin-4-yl]methyl}-4-fluoro-3H-pyrimidin-2-one] | 5.30 to 6.00
11 | O=c1ncc(CN2CCOc3c(Cl)cc(-n4ccc5cc(F)ccc54)cc3C2)c(O)[nH]1 [Compound 157, 5-{[9-chloro-7-(5-fluoroindol-1-yl)-3,5-dihydro-2H-1,4-benzoxazepin-4-yl]methyl}-4-hydroxy-3H-pyrimidin-2-one] | 5.30 to 6.00
12 | Oc1ncc(CN2CCOc3c(Cl)cc(-n4ccc5cc(F)ccc54)cc3C2)c(Cl)n1 [Compound 158, 4-chloro-5-{[9-chloro-7-(5-fluoroindol-1-yl)-3,5-dihydro-2H-1,4-benzoxazepin-4-yl]methyl}-3H-pyrimidin-2-one] | 5.30 to 6.00

Second part, the compound after the results:

Row | pIC50 | Structure (SMILES)
13 | 6.00 to 6.30 | COc1nccc(CN2CCOc3c(Cl)cc(-n4ccc5cc(F)ccc54)cc3C2)n1 [Compound 161]
14 | 5.30 to 6.00 | Fc1ccc2c(ccn2-c2cc(Cl)c3c(c2)CN(Cc2ccnc(NC4COC4)n2)CCO3)c1 [Compound 162, 4-{[9-chloro-7-(5-fluoroindol-1-yl)-3,5-dihydro-2H-1,4-benzoxazepin-4-yl]methyl}-N-(oxetan-3-yl)pyrimidin-2-amine]
15 | 5.30 to 6.00 | Nc1nccc(CN2CCOc3c(Cl)cc(-n4ccc5cc(F)ccc54)cc3C2)n1 [Compound 163, 4-{[9-chloro-7-(5-fluoroindol-1-yl)-3,5-dihydro-2H-1,4-benzoxazepin-4-yl]methyl}pyrimidin-2-amine]
16 | < 5.30 | O=c1nccc(CN2CCOc3c(Cl)cc(-n4ccc5cc(F)ccc54)cc3C2)[nH]1 [Compound 164]
17 | 6.00 to 6.30 | Fc1ccc2c(ccn2-c2cc(Cl)c3c(c2)CN(Cc2cccnn2)CCO3)c1 [Compound 166]
